Read-outs that look alike come from different tables or passages of the source.
Target: T1, Estrogen Receptor-HaloTag (ER-Halo) fusion (Rhodococcus rhodochrous, UniProt P0A3G2, A155T/A167V/A172T/A224E/C128F/C176G/D78G/E160K/E257K/H272N/K175M/K195N/L47V/L88M/N227D/P291S/S58T/T264A/Y273L/Y87F)
T1 construct: expressed in transfected cells; host or cells: U2OS
Assay type: cell-based
Conditions: tracks in WT U2OS cells, ratio with PA-JF549 in the numerator, 100 nM, 1 hr
Protocol: Using the methods described in Tables 4a and 4b above, labelling specificity of the compound of Examples 1-24 was measured and compared to PA-JF549. U2OS cells wild type or expressing ER-HaloTag fusion were incubated with PA-JF549 or Examples 1-24 for 1 hr. […] Labeling specificity, as measured by the fold reduction in nonspecific labeling of WT cells, was calculated by number of tracks measured in WT cells for Examples 1-24 compared to the number of tracks in WT cells for PA-JF549, expressed as the ratio with PA-JF549 in the numerator.

T1 sequence (P03372 whole entry, the tested form may be a part): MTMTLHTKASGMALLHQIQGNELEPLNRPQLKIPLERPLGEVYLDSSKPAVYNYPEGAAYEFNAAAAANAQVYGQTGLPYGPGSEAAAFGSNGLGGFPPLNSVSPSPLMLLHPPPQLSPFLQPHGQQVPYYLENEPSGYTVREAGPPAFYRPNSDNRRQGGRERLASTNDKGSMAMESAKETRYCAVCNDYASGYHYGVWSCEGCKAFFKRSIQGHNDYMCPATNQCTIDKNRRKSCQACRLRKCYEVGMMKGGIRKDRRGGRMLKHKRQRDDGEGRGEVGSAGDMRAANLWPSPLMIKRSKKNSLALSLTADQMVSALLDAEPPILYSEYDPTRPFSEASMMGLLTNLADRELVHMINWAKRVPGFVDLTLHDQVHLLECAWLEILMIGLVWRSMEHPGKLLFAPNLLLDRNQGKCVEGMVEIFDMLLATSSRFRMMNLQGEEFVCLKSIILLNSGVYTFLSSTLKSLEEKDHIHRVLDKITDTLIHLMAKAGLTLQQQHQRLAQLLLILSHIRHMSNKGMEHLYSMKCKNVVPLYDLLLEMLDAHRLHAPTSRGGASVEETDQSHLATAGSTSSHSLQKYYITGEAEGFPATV
T1 sequence (P0A3G2 other isoform, or with tags, fused parts or gaps with the stated changes): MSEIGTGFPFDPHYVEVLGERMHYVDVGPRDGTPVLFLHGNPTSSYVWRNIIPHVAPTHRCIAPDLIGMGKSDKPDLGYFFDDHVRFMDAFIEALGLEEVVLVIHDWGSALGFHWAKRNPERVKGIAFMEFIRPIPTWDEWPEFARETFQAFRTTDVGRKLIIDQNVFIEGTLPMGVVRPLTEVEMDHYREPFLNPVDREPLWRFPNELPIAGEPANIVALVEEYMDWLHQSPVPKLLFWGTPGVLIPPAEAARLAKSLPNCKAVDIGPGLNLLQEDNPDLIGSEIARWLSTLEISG

Row | Molecule | Fold reduction in nonspecific labeling (Table 4a) | Fold reduction in nonspecific labeling (Table 4b)
1 | CN(C)C(=O)C1CN(c2ccc3c(c2)Oc2cc(N4CC(C(=O)N(C)C)C4)ccc2C32C(=[N+]=[N-])C(=O)c3ccc(C(=O)NCc4ccc(COc5nc(N)nc6nc[nH]c56)cc4)cc32)C1 [Example 5] | >10 | >10
2 | [N-]=[N+]=C1C(=O)c2ccc(C(=O)NCCOCCOCCCCCCCl)cc2C12c1ccc(N3C4COCC3C4)cc1Oc1cc(N3C4COCC3C4)ccc12 (stereo not shown) [Example 17, 3′,6′-di(3-oxa-6-azabicyclo[3.1.1]heptan-6-yl)-N-(2-(2-((6-chlorohexyl)oxy)ethoxy)ethyl)-2-diazo-3-oxo-2,3-dihydrospiro[indene-1,9′-xanthene]-6-carboxamide] | 1-5 | 1-5
3 | 3′,6′-di(azetidin-1-yl)-6-((2-(2-((6-chlorohexyl)oxy)ethoxy)ethyl)amino)-3H-spiro[isobenzofuran-1,9′-xanthen]-3-one [Example 21] |  | 5-10
4 | CN(C)C1CN(c2ccc3c(c2)Oc2cc(N4CC(N(C)C)C4)ccc2C32C(=[N+]=[N-])C(=O)c3ccc(C(=O)NCCOCCOCCCCCCCl)cc32)C1 [Example 13, N-(2-(2-((6-chlorohexyl)oxy)ethoxy)ethyl)-2-diazo-3′,6′-bis(3-(dimethylamino)azetidin-1-yl)-3-oxo-2,3-dihydrospiro[indene-1,9′-xanthene]-6-carboxamide] | 5-10 | 5-10
5 | COC(=O)[C@H]1CCN1c1ccc2c(c1)Oc1cc(N3CC[C@@H]3C(=O)OC)ccc1C21C(=[N+]=[N-])C(=O)c2ccc(C(=O)NCCOCCOCCCCCCCl)cc21 [Example 6] | 1-5 | 1-5
6 | CN1CC2CC(C1)N2c1ccc2c(c1)Oc1cc(N3C4CC3CN(C)C4)ccc1C21C(=[N+]=[N-])C(=O)c2ccc(C(=O)NCCOCCOCCCCCCCl)cc21 (stereo not shown) [Example 18, N-(2-(2-((6-chlorohexyl)oxy)ethoxy)ethyl)-2-diazo-3′,6′-bis(3-methyl-3,6-diazabicyclo[3.1.1]heptan-6-yl)-3-oxo-2,3-dihydrospiro[indene-1,9′-xanthene]-6-carboxamide] | >10 | >10
7 | [N-]=[N+]=C1C(=O)c2ccc(C(=O)NCCOCCOCCCCCCCl)cc2C12c1ccc(N3CC(C(=O)N4CCOCC4)C3)cc1Oc1cc(N3CC(C(=O)N4CCOCC4)C3)ccc12 [Example 9, N-(2-(2-((6-chlorohexyl)oxy)ethoxy)ethyl)-2-diazo-3′,6′-bis(3-(morpholine-4-carbonyl)azetidin-1-yl)-3-oxo-2,3-dihydrospiro[indene-1,9′-xanthene]-6-carboxamide] | >10 | >10
8 | CN(C)C(=O)[C@H]1CCN(c2ccc3c(c2)Oc2cc(N4CC[C@H](C(=O)N(C)C)C4)ccc2C32C(=[N+]=[N-])C(=O)c3ccc(C(=O)NCCOCCOCCCCCCCl)cc32)C1 [Example 16, (3S,3′S)-1,1′-(6-((2-(2-((6-chlorohexyl)oxy)ethoxy)ethyl)carbamoyl)-2-diazo-3-oxo-2,3-dihydrospiro[indene-1,9′-xanthene]-3′,6′-diyl)bis(N,N-dimethylpyrrolidine-3-carboxamide)] | 5-10 | 5-10
9 | [N-]=[N+]=C1C(=O)c2ccc(NC(=O)CCOCCOCCCCCCCl)cc2C12c1ccc(N3CCC3)cc1Oc1cc(N3CCC3)ccc12 [Example 22, 3-(2-((6-chlorohexyl)oxy)ethoxy)-N-(3′,6′-di(azetidin-1-yl)-2-diazo-3-oxo-2,3-dihydrospiro[indene-1,9′-xanthen]-6-yl)propanamide] |  | 5-10
